Measured values reported in patent US10626368B2, “Method for inducing cerebral cortex neurons” (KYOTO UNIVERSITY, priority 2015, dated 2020).

System: ES cells or the iPS cells
Test: Sphere formation and Pax6 immunostaining after 18 days of suspension culture
Type: cell-based, human
Procedure: On the day before induction of differentiation, in order to separate the ES cells or the iPS cells, which had been cultured in a culture medium to which 10 μM Y-27632 (WAKO) had been added, from the SNL feeder cells, the SNL cells were removed with CTK and the remaining cells were then dissociated using Accumax (ICT). The cells were transferred on a 96-well plate (Lipidure-coat 96-well plate (NOF Corporation)) in an amount of 9×10^3 cells per well. Thereafter, the cells were subjected to a suspension culture in DMEM/F12 (WAKO) comprising 50 μM Y-27632 (WAKO), 10 μM SB43152 (Sigma), 10 ng/ml bFGF (Invitrogen), various types of Wnt inhibitors (DKK1 (R & D, 500 ng/ml), C59 (Cellagen Technology, 2-10 nM), XAV (Stemgent, 500 nM-2 μM) or IWP4 (Stemgent, 500 nM-2.5 μM)), LDN193189 (Stemgent), KSR (Invitrogen), 0.1 mM MEM non-essential amino acid (Invitrogen), 0.1 mM 2-mercaptoethanol (WAKO), and 2 mM L-Gln (Invitrogen) (initiation of differentiation induction, day 0). […] Furthermore, the expression levels of the Foxg1, Lhx2, Emx2 and CoupTF1 genes in the obtained spheres were measured according to a qPCR method (FIG. 4B). […]

Question: For Cc1cc(-c2ccc(CC(=O)Nc3ccc(-c4cccnc4)cc3)cc2)ccn1 [C59], which “sphere formation in the suspension culture” value (1 μM C59, 18 days) is on record?
Answer: no spheres were formed

Question: And the “Pax6-positive cells in spheres (immunostaining)” value (without C59, 2.5 nM and 10 nM C59, 18 days)?
Answer: positive cells were confirmed under all conditions
